In ChEMBL document CHEMBL3997834, “Phenolic compounds isolated from Dioscorea zingiberensis protect against pancreatic acinar cells necrosis induced by sodium taurocholate” (Bioorg Med Chem Lett, 2017):
The source made the active and inactive calls. No cut-off for these calls is given here.

Assays:
[1] = tested on: Pancreatic acinar cell; assay: (§1) Cytoprotective activity against sodium taurocholate-induced necrosis in Balb/C mouse pancreatic acinar cells at 0.5 mM after 40 mins by propidium iodide/Hoechst 33342 staining-based fluorescence microscopic method; format: functional
[2] = tested on: Pancreatic acinar cell; assay: Cytoprotective activity against sodium taurocholate-induced necrosis in Balb/C mouse pancreatic acinar cells at 5 mM after 40 mins by propidium iodide/Hoechst 33342 staining-based fluorescence microscopic method; format: functional
[3] = as §1; format: functional, Pancreatic acinar cell
[4] = tested on: Pancreatic acinar cell; assay: Cytoprotective activity against sodium taurocholate-induced necrosis in Balb/C mouse pancreatic acinar cells at 1 mM after 40 mins by propidium iodide/Hoechst 33342 staining-based fluorescence microscopic method; format: functional
[5] = Cytoprotective activity against sodium taurocholate-induced necrosis in Balb/C mouse pancreatic acinar cells assessed as intracellular ATP production at 0.5 mM measured at 40 mins by luminescence assay (reference value: 21.5%); format: functional, Pancreatic acinar cell
[6] = Cytotoxicity against Balb/C mouse pancreatic acinar cells at 1 mM after 40 mins by propidium iodide/Hoechst 33342 staining-based fluorescence microscopic method; details: pancreatic acinar cell, 1000 µM
[7] = Cytoprotective activity against sodium taurocholate-induced necrosis in Balb/C mouse pancreatic acinar cells assessed as decrease in intracellular reactive oxygen species generation at 0.5 mM measured for 20 mins by H2-DCFDA probe-based fluorescence assay relative to control; format: functional, Pancreatic acinar cell; set-up: scale not given: the % may be the effect or the level left
[8] = Cytoprotective activity against sodium taurocholate-induced necrosis in Balb/C mouse pancreatic acinar cells assessed as intracellular ATP production at 0.5 mM measured at 20 mins by luminescence assay (reference value: 39.9%); format: functional, Pancreatic acinar cell

| SMILES | Activity [1] | further results |
| --- | --- | --- |
| COc1ccc2c(c1O)-c1c(cc(O)cc1OC)CC2 | inactive | – |
| Cn1c(=O)c2c(ncn2C)n(C)c1=O | – | Activity [2]: Active |
| COc1cc(O)cc(CCc2ccc(OC)c(O)c2)c1 | inactive | – |
| Oc1ccc(CC[C@@H](O)C[C@H](O)CCc2ccc(O)c(O)c2)cc1 | – | Activity [3]: 19%; Activity [4]: inactive; Activity [5]: 38.3%; Activity [6]: Toxic; Activity [7]: 27.9%; Activity [8]: 59.4% |
| Oc1ccc(CC[C@@H](O)C[C@H](O)CCc2ccc(O)cc2)cc1 | Active | – |
| COc1ccc(CCc2cc(O)c(OC)c(O)c2)cc1 | inactive | – |
| COc1c(O)cc(CCc2ccccc2)cc1O | inactive | – |
| COc1cc(CC[C@@H](O)C[C@H](O)CCc2ccc(O)cc2)ccc1O | Active | – |
| COc1cc(CC[C@@H](O)C[C@H](O)CCc2ccc(O)c(OC)c2)ccc1O | Active | – |
